Assay results as given in ChEMBL document CHEMBL3792349, “Synthesis of novel diazaphosphinanes coumarin derivatives with promoted cytotoxic and anti-tyrosinase activities” (Bioorg Med Chem Lett, 2016).
Activity calls are given as the source filed them. The rule behind the calls is not given here.

Experiments:
[1] = Cytotoxicity against human HCT116 cells assessed as inhibition of cell proliferation after 48 hrs by MTT assay; assay type: functional, cell-based, HCT-116
MCF7 = assay: Cytotoxicity against human MCF7 cells assessed as inhibition of cell proliferation after 48 hrs by MTT assay; assay type: functional, cell-based
[2] = biological target: T1, Tyrosinase (Agaricus bisporus) (UniProt O42713); assay: Inhibition of mushroom tyrosinase using L-tyrosine as substrate assessed as dopachrome formation at 100 uM measured for 10 mins by spectrophotometric method relative to control
T1 sequence (whole entry): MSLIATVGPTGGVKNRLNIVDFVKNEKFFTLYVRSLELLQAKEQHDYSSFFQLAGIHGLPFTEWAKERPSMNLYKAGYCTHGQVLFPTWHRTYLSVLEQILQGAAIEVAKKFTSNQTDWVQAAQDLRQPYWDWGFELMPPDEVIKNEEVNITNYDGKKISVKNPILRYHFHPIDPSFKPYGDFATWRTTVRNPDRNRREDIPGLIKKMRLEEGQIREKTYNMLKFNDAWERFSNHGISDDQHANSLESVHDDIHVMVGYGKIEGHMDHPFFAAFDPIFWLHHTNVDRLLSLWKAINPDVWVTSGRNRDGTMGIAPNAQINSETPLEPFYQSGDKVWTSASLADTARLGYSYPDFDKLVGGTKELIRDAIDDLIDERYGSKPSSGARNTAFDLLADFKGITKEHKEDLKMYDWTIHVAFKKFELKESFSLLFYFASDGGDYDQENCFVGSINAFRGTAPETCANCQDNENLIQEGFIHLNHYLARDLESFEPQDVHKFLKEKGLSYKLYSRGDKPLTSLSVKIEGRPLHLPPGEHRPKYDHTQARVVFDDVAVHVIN

COc1ccc(P2(=S)NC(=S)C3=C(N2)Oc2c(c(=S)oc4ccccc24)C3c2cccnc2)cc1 (stereo not given)
IC50 ([1]; Homo sapiens, HCT-116, 48 h): > 100 µM
IC50 (MCF7; Homo sapiens, MCF7, 48 h): > 100 µM
inhibition [2]: inactive

COc1ccc(P2(=S)NC(=S)C3=C(N2)Oc2c(c(=S)oc4ccccc24)C3c2ccccn2)cc1 (stereo not given)
IC50 ([1]; Homo sapiens, HCT-116, 48 h): > 100 µM
IC50 (MCF7; Homo sapiens, MCF7, 48 h): > 100 µM
inhibition [2]: 97.4%

COc1ccc(C2C3=C(NP(=S)(c4ccc(OC)cc4)NC3=S)Oc3c2c(=S)oc2ccccc32)cc1 (single isomer, unassigned; diastereomer 1) [listing 1 of 2 here]
IC50 ([1]; Homo sapiens, HCT-116, 48 h): 49 µM
IC50 (MCF7; Homo sapiens, MCF7, 48 h): > 100 µM

COc1ccc(P2(=S)NC(=S)C3=C(N2)Oc2c(c(=S)oc4ccccc24)C3c2ccc(OC)c(OC)c2)cc1 (single isomer, unassigned; diastereomer 1) [listing 1 of 2 here]
IC50 ([1]; Homo sapiens, HCT-116, 48 h): > 100 µM
IC50 (MCF7; Homo sapiens, MCF7, 48 h): > 100 µM

COc1ccc(P2(=S)NC(=S)C3=C(N2)Oc2c(c(=S)oc4ccccc24)C3c2ccc(Cl)cc2)cc1 (single isomer, unassigned; diastereomer 1) [listing 1 of 2 here]
IC50 ([1]; Homo sapiens, HCT-116, 48 h): 32 µM
IC50 (MCF7; Homo sapiens, MCF7, 48 h): 32 µM

CCCCOc1ccc(C2C3=C(NP(=S)(c4ccc(OC)cc4)NC3=S)Oc3c2c(=S)oc2ccccc32)cc1 (single isomer, unassigned; diastereomer 1) [listing 1 of 2 here]
IC50 ([1]; hct-116): 25.2 µM
IC50 (MCF7; mcf7): 37.2 µM

COc1ccc(P2(=S)NC(=S)C3=C(N2)Oc2c(c(=S)oc4ccccc24)C3c2ccccc2)cc1 (single isomer, unassigned; diastereomer 1) [listing 1 of 2 here]
IC50 ([1]; Homo sapiens, HCT-116, 48 h): 71 µM
IC50 (MCF7; Homo sapiens, MCF7, 48 h): > 100 µM

COc1ccc(P2(=S)NC(=S)C3=C(N2)Oc2c(c(=S)oc4ccccc24)C3c2ccc(C)cc2)cc1 (single isomer, unassigned; diastereomer 1) [listing 1 of 2 here]
IC50 ([1]; Homo sapiens, HCT-116, 48 h): 48 µM
IC50 (MCF7; mcf7): > 100 µM

CCCCOc1ccc(C2C3=C(NP(=S)(c4ccc(OC)cc4)NC3=S)Oc3c2c(=S)oc2ccccc32)cc1 (single isomer, unassigned; diastereomer 1) [listing 2 of 2 here]
inhibition [2]: 55%

COc1ccc(C2C3=C(NP(=S)(c4ccc(OC)cc4)NC3=S)Oc3c2c(=S)oc2ccccc32)cc1 (single isomer, unassigned; diastereomer 1) [listing 2 of 2 here]
inhibition [2]: inactive

COc1ccc(P2(=S)NC(=S)C3=C(N2)Oc2c(c(=S)oc4ccccc24)C3c2ccc(C)cc2)cc1 (single isomer, unassigned; diastereomer 1) [listing 2 of 2 here]
inhibition [2]: 58.5%

COc1ccc(P2(=S)NC(=S)C3=C(N2)Oc2c(c(=S)oc4ccccc24)C3c2ccc(Cl)cc2)cc1 (single isomer, unassigned; diastereomer 1) [listing 2 of 2 here]
inhibition [2]: 80.7%

COc1ccc(P2(=S)NC(=S)C3=C(N2)Oc2c(c(=S)oc4ccccc24)C3c2ccc(OC)c(OC)c2)cc1 (single isomer, unassigned; diastereomer 1) [listing 2 of 2 here]
inhibition [2]: inactive

COc1ccc(P2(=S)NC(=S)C3=C(N2)Oc2c(c(=S)oc4ccccc24)C3c2ccccc2)cc1 (single isomer, unassigned; diastereomer 1) [listing 2 of 2 here]
inhibition [2]: inactive

COc1ccc(C2C3=C(NP(=S)(c4ccc(OC)cc4)NC3=S)Oc3c2c(=S)oc2ccccc32)cc1 (single isomer, unassigned; diastereomer 2) [listing 1 of 2 here]
IC50 ([1]; hct-116): 31.6 µM
IC50 (MCF7; mcf7): 99 µM

COc1ccc(P2(=S)NC(=S)C3=C(N2)Oc2c(c(=S)oc4ccccc24)C3c2ccc(Cl)cc2)cc1 (single isomer, unassigned; diastereomer 2) [listing 1 of 2 here]
IC50 ([1]; hct-116): 30 µM
IC50 (MCF7; mcf7): 33 µM

CCCCOc1ccc(C2C3=C(NP(=S)(c4ccc(OC)cc4)NC3=S)Oc3c2c(=S)oc2ccccc32)cc1 (single isomer, unassigned; diastereomer 2) [listing 1 of 2 here]
IC50 ([1]; hct-116): 56 µM
IC50 (MCF7; mcf7): > 100 µM

COc1ccc(P2(=S)NC(=S)C3=C(N2)Oc2c(c(=S)oc4ccccc24)C3c2ccccc2)cc1 (single isomer, unassigned; diastereomer 2) [listing 1 of 2 here]
IC50 ([1]; hct-116): 68 µM

COc1ccc(P2(=S)NC(=S)C3=C(N2)Oc2c(c(=S)oc4ccccc24)C3c2ccc(C)cc2)cc1 (single isomer, unassigned; diastereomer 2) [listing 1 of 2 here]
IC50 ([1]; hct-116): 37 µM
IC50 (MCF7; mcf7): 40 µM

CCCCOc1ccc(C2C3=C(NP(=S)(c4ccc(OC)cc4)NC3=S)Oc3c2c(=S)oc2ccccc32)cc1 (single isomer, unassigned; diastereomer 2) [listing 2 of 2 here]
inhibition [2]: 88.7%

COc1ccc(C2C3=C(NP(=S)(c4ccc(OC)cc4)NC3=S)Oc3c2c(=S)oc2ccccc32)cc1 (single isomer, unassigned; diastereomer 2) [listing 2 of 2 here]
inhibition [2]: 68.8%

COc1ccc(P2(=S)NC(=S)C3=C(N2)Oc2c(c(=S)oc4ccccc24)C3c2ccc(C)cc2)cc1 (single isomer, unassigned; diastereomer 2) [listing 2 of 2 here]
inhibition [2]: 61.8%

COc1ccc(P2(=S)NC(=S)C3=C(N2)Oc2c(c(=S)oc4ccccc24)C3c2ccc(Cl)cc2)cc1 (single isomer, unassigned; diastereomer 2) [listing 2 of 2 here]
inhibition [2]: 16.1%

COc1ccc(P2(=S)NC(=S)C3=C(N2)Oc2c(c(=S)oc4ccccc24)C3c2ccc(OC)c(OC)c2)cc1 (single isomer, unassigned; diastereomer 2)
inhibition [2]: 56.8%

COc1ccc(P2(=S)NC(=S)C3=C(N2)Oc2c(c(=S)oc4ccccc24)C3c2ccccc2)cc1 (single isomer, unassigned; diastereomer 2) [listing 2 of 2 here]
inhibition [2]: inactive

COc1cccc2c1C(=O)c1c(O)c3c(c(O)c1C2=O)C[C@@](O)(C(=O)CO)C[C@@H]3O[C@H]1C[C@H](N)[C@H](O)[C@H](C)O1 [DOXORUBICIN]
IC50 (MCF7; Homo sapiens, MCF7, 48 h): 0.38 µM
